According to patent US6376666B1 (Nauchno-Issledovatelsky Institut Farmakologii Rossiiskoi …, priority 1994, dated 2002):
Marks after values point to notes of the source that are not given here.

What was measured:
[1] = tested on: calcium chloride arrhythmia; assay: calcium chloride arrhythmia in concious rats; assay type: in vivo; conditions: concious rats, given 2 min prior calcium chloride 250-300 mg/kg i.v.
Description: In these experiments the outbred concious rats 180-200 g of weight were injected with 10% solution of calcium chloride in tail vein at dose range of 250-300 mg/kg.

[2] = tested on: aconitine arrhythmia; assay: animal or person; assay type: in vivo, rats
Description: Aconitine arrhythmia. The aconitine arrhythmia was induced in concious rats weighing 180-200 g by the injection in tail vein of the aconitine sulfate solution at dose range of […]. […] The tested compounds were administered i.v. 3 min prior aconitine injection. The ED50 value was calculated according to Litchfield's method.

[3] = tested on: ventricular fibrillations; assay: ventricular fibrillation, 7-min occlusion and reperfusion of coronary artery in anesthetized rats; assay type: in vivo
Description: The experiments were conducted in male rats weighing 180-240 g and anesthetized with nembutal (60 mg/kg i.v.) with open chest and artificial respiration. The occlusion of the left coronary artery was performed 1-2 min after experiment beginning with following reperfusion after 7 min. During this period time according to literature data [Krzeminski T., Grzyb J., Kurcok A., Brus R.: Pol.J.Pharmacol., 1992, 44, Suppl., p.169-170] the maximum number of ventricular fibrillations (70-100%) were registered. The ECG in the 2nd standard lead was recorded in “Mingograph-81”. The number of ventricular fibrillations during occlusion and reperfusion periods, the life menacing arrhythmia (fibrillation+paroxysmal ventricular tachycardia) and total number of arrhythmias were calculated. The known antiarrhythmic drug bonnecor was used as the reference agent [Grigorieva E. K., Gorbunova V. V. in: “New antiarrhythmic drug—bonnecor (the pharmacology and clinical usage)”, M., 1993, p.64-67]. The compounds were injected i.v. at the following doses: bonnecor—1,0 mg/kg, compound IX—2,0 mg/kg, compound XX—1,0 mg/kg. The control animals were administered with the equivalent volume of physiological solution (1,0 ml/kg). 4 series of experiments were carried out in 80 rats. The results were assessed according to the method of point scale: the absence of arrhythmia—0 point, extrasystole—1 point, paroxysmal ventricular tachycardia—2 points, ventricular fibrillation—3 points, fibrillation observed during the occlusion of coronary vessel—4 points. For statistical analysis the Fisher's exact probability and Wilconson's methods were used.
[Krzeminski T., Grzyb J., Kurcok A., Brus R.: Pol.J.Pharmacol., 1992, 44, Suppl., p.169-170] have shown that 7 min occlusion with following reperfusion of coronary artery in anesthetized rats produced the ventricular fibrillation (68-100%). Defibrotide and prostacycline decreased the number of fibrillations. We have studied the antifibrillator activity of some derivatives of 2-mercaptbenzimidazole in this model with disturbances of heart rhythm. Bonnecor (1,0 mg/kg) was used as the reference drug. It is well known that this agent produces apronouncedantifibrillatoryactivity [Grigorieva E. K., Gorbunova V. V. in: “New antiarrhythmic drug-bonnecor (the pharmacology and clinical usage)”, M., 1993, p.64-67].

[4] = after i.v. injection

CCOC(=O)Nc1ccc2c(c1)N(C(=O)CN(C)C)c1ccccc1CC2 [Bonnecor, bonnecor, reference compound]
Calcium chloride arrhythmia ED50 (mean effective dose) [1]: 1.6 mg/kg | LD50/ED50 (antiarrhythmic index) ([2]; LD50 i.v. / ED50 aconitine arrhythmia): 50 | Aconitine arrhythmia ED50 ([2]; concious rats, i.v. 3 min prior aconitine): 0.23 mg/kg | antifibrillatory effect, in words ([3]; anesthetized rats i.v., bonnecor 1,0, IX 2,0, X (printed) 1,0 mg/kg): decreased the number of both the ventricular fibrillations and lethality hazardous arrhythmia | Number of VF (ventricular fibrillations) ([3]; anesthetized rats, 1 mg/kg i.v., 18 animals, control 15 of 24): 6* | Number of LHA (lethality hazardous arrhythmia) ([3]; anesthetized rats, 1 mg/kg i.v., 18 animals, control 22 of 24): 12* | Total numbers of arrhyt. ([3]; anesthetized rats, 1 mg/kg i.v., 18 animals, control 24 of 24): 16 | Severity of arrhythmias ([3]; anesthetized rats, 1 mg/kg i.v., 18 animals, control 66): 36* points | Acute toxicity LD50 [4]: 11.5 mg/kg
